Source: patent US20060216238A1, “Compositions and methods for targeting or imaging a tissue in a vertebrate subject” (priority 2005, published 2006)

Assays:
[1] = tested on: CD8+ T cells producing IFN-γ and TNF-α; test: Virus-specific CD8+ T-cell activity, ICCS assay; format: in vivo, mouse
LCMV = details: mouse, in vivo
[2] = Trafficking of OG-CPMV in vivo by tissue fluorescence measurements; parameters: species or system mouse; details: oral, exception GI tissues and lymph nodes in 1 of 3 mice
Protocol: Inoculation of mice with free Oregon Green 488 dye. Mice were administered 3.81 μg per mouse of free OG-488 dye by oral gavage, the equivalent amount of dye as that attached to the CPMV particles given by oral gavage. One mouse per day for three days post inoculation was perfused and tissues were isolated for fluorescence measurements. Similarly, by the intravenous route three mice were injected with 0.509 μg per mouse of free OG-488 dye, the equivalent amount of dye as that attached to the CPMV particles administered i.v. Tissues were harvested from mice following perfusion as described above.
Fluorescence measurements. Tissues were isolated and homogenized in PBS, then centrifuged at 10,000 g for 10 minutes at 4° C. to precipitate the cell debris. The OG-488-specific fluorescence emissions in the clarified tissue supernatants were determined using a Varian Cary Eclipse fluorescence spectrophotometer. A control sample of sham-inoculated tissue supernatant from each tissue was spiked with a known amount of OG-CPMV and the tissue-specific dye excitation and emission were determined for each tissue. The determined tissue specific emission λ value was then used in five separate scans of each tissue supernatant sample, following which the spectra were averaged and the emission value of the sham-inoculated control sample was subtracted as background.

HUVECS = test: Endothelial cell migration assay; format: cell-based, human
Protocol: Endothelial cell migration assay. Migration of calcein AM labeled cells (5 μM, 30 min, at 37° C.) was tested in the presence or absence of the CPMV chimeras using cell migration chambers Briefly, the lower wells were loaded with buffers containing various chemo-attractants. The framed filter membrane was positioned on the top and 50,000 calcein labeled HUVECs treated with/without the targeting chimeras were added to the top well above the membrane. The assembly was incubated for 2 h at 37° C. and the number of cells that transmigrated to the bottom wells was quantified by measuring the intensity of fluorescence at 488 nm.

Lymphocytic choriomeningitis virus (LCMV), Armstrong strain
CD8+ T cells producing IFN-γ ([1]; assay 8 days after boosting): 13.53%
CD8+ T cells producing TNF-α ([1]; assay 8 days after boosting): 7.3%
CD8+ T-cells producing IFN-γ ([1]; primary response assay): 10%
CD8+ T-cells producing TNF-α ([1]; primary response assay): 6.5%
survival of lethal i.c. LCMV challenge (LCMV): enabled the mice to survive the lethal i.c. inoculation
survival of lethal i.c. LCMV challenge, boost experiment (LCMV): All mice inoculated with LCMV 6 weeks before survived

Oregon Green 488 (OG-488) carboxylic acid, succinimidyl ester [free OG-488 dye]
fluorescence in tissues due to free dye [2]: negligible in all tissues at all time points

VEGF [reference compound]
stimulation of migration of cells across the filter (HUVECS): 30%
